Numbers after ± are expanded uncertainties.
Test: xn = mol fraction of the nth substance listed
Details: 101 kPa, Liquid; for mass density: Vibrating tube method

CCCCCCC [heptane] + c1ccccc1
x2 = 0
Details	mass density [kg/m3]	viscosity [mPa·s]
308.15 K	671.3 ± 0.3	0.3497 ± 0.0071
313.15 K	667.1 ± 0.3	0.3329 ± 0.0069

c1ccccc1 [benzene] + CCc1ccccc1
x1 = 1
Details	mass density [kg/m3]	viscosity [mPa·s]
308.15 K	862.9 ± 0.2	0.5272 ± 0.0098
313.15 K	857.7 ± 0.2	0.4942 ± 0.0093

Cc1ccccc1 [toluene] + c1ccccc1
x2 = 0
Details	mass density [kg/m3]	viscosity [mPa·s]
308.15 K	852.8 ± 0.2	0.494 ± 0.0093
313.15 K	848.3 ± 0.2	0.4676 ± 0.0089

CCCCCCC [heptane] + Cc1ccccc1
x1 = 1
Details	mass density [kg/m3]	viscosity [mPa·s]
308.15 K	671.3 ± 0.3	0.3497 ± 0.0071
313.15 K	667.1 ± 0.3	0.3329 ± 0.0069

Cc1ccccc1 [toluene] + CCc1ccccc1
x1 = 1
Details	mass density [kg/m3]	viscosity [mPa·s]
308.15 K	852.8 ± 0.2	0.494 ± 0.0093
313.15 K	–	0.4755 ± 0.009
318.15 K	848.3 ± 0.2	–

CCc1ccccc1 [ethylbenzene] + Cc1ccccc1
Details	mass density, 308.15 K [kg/m3]	mass density, 318.15 K [kg/m3]	viscosity, 308.15 K [mPa·s]	viscosity, 313.15 K [mPa·s]
x2 = 0	853.7 ± 0.2	849.5 ± 0.2	0.5652 ± 0.01	0.5294 ± 0.0099
x2 = 0.0424	853.7 ± 0.2	849.5 ± 0.2	0.5587 ± 0.01	0.5306 ± 0.0098
x2 = 0.128	853.7 ± 0.2	849.4 ± 0.2	0.5587 ± 0.01	0.525 ± 0.0098
x2 = 0.2164	853.6 ± 0.2	849.3 ± 0.2	0.5471 ± 0.01	0.5185 ± 0.0097
x2 = 0.2928	853.6 ± 0.2	849.3 ± 0.2	0.5408 ± 0.01	0.5124 ± 0.0096
x2 = 0.393	853.5 ± 0.2	849.2 ± 0.2	0.5379 ± 0.0099	0.5186 ± 0.0097
x2 = 0.4922	853.4 ± 0.2	849.1 ± 0.2	0.5349 ± 0.0099	0.5022 ± 0.0094
x2 = 0.5716	853.4 ± 0.2	849 ± 0.2	0.5243 ± 0.0097	0.4968 ± 0.0093
x2 = 0.7107	853.2 ± 0.2	848.8 ± 0.2	0.5125 ± 0.0096	0.4853 ± 0.0092
x2 = 0.8425	853 ± 0.2	848.6 ± 0.2	0.5108 ± 0.0095	0.4781 ± 0.0091

CCc1ccccc1 [ethylbenzene] + CCCCCCC
Details	mass density, 308.15 K [kg/m3]	mass density, 313.15 K [kg/m3]	viscosity, 308.15 K [mPa·s]	viscosity, 313.15 K [mPa·s]
x2 = 0	853.7 ± 0.2	849.5 ± 0.2	0.5652 ± 0.01	0.5294 ± 0.0099
x2 = 0.1034	831.5 ± 0.2	827.4 ± 0.2	0.5217 ± 0.0097	0.4945 ± 0.0093
x2 = 0.2048	810.6 ± 0.3	806.5 ± 0.3	0.4925 ± 0.0093	0.4631 ± 0.0088
x2 = 0.2931	793 ± 0.3	788.8 ± 0.3	0.4625 ± 0.0088	0.4393 ± 0.0085
x2 = 0.3754	777.2 ± 0.3	773 ± 0.3	0.44 ± 0.0085	0.419 ± 0.0082
x2 = 0.488	756.3 ± 0.3	752.2 ± 0.3	0.4195 ± 0.0082	0.3986 ± 0.0079
x2 = 0.5929	737.7 ± 0.3	733.6 ± 0.3	0.4061 ± 0.008	0.3807 ± 0.0076
x2 = 0.6899	720.9 ± 0.3	716.7 ± 0.3	0.3859 ± 0.0077	0.3669 ± 0.0074
x2 = 0.8051	701.8 ± 0.3	697.7 ± 0.3	0.369 ± 0.0074	0.3516 ± 0.0072
x2 = 0.8979	687.1 ± 0.3	683 ± 0.3	0.3659 ± 0.0074	0.3425 ± 0.0071

CCc1ccccc1 [ethylbenzene] + C1CCCCCCC1
x1 = 1
Details	mass density [kg/m3]	viscosity [mPa·s]
308.15 K	853.7 ± 0.2	0.5652 ± 0.01
313.15 K	849.5 ± 0.2	0.5294 ± 0.0099
